The text below walks through data of patent publication US7338940B2, “Cancer treatment including glycolytic inhibitors” (priority 2000, dated 2008).

The test system of data set [1] is human breast carcinoma cells, MCF-7. The experiment in a line: Colony forming units after co-treatment with Rho 123 and 2-dg. The data set is classed as cell-based. The text has this: 218:1117-1119, 1982; Lampidis, T J, Bernal, S D, Summerhayes, I C, and Chen, L B. “Selective toxicity of Rhodamine 123 in carcinoma cells in vitro.” Cancer Res. 43:716-720, 1983; and Bernal, S B, Lampidis, T J, Mclsaac, B, and Chen, L B. “Anticarcinoma activity in vivo of Rhodamine 123, a mitochondrial-specific dye.” Science.

For data set [2], the system named is ρ^o cells (cell line 206). The experiment in a line: Growth inhibition studies in ρ° cells devoid of mitochondrial DNA. The data set is classed as cell-based. To be noted: for 50% Growth Inhibition Dose / IC50: ρ° cells; for Ratio of 50% growth inhibition dose, ρ° to wild type (times more resistant): ρ° vs wild type 143B cells; for IC50: read-out: 50% Growth Inhibition Dose; for Relative toxicity/sensitivity in ρ^o vs wt cells (in words): cell model (B). The text has this: When an osteosarcoma cell line (143B; Wild type in Table 1 below) was exposed for prolonged periods to ethidium bromide a mutant completely devoid of mitochondrial DNA ρ^o was isolated. […] These processes are necessary for transmembrane proton pumping which creates an electronegative membrane potential (Δψmt) in the matrix side of the inner mitochondrial membrane. Since Rho 123 is a fluorescent dye, which due to its chemical positive charge accumulates in mitochondria, it is commonly used as an indicator of Δψmt.

Data set [3] concerns implanted tumors. The experiment in a line: In vivo treatment of animals with implanted tumors. To be noted: for Tumor response: animals with implanted tumors. The text has this:
This latter result provides evidence that manipulation of Oxphos and glycolysis simultaneously can cure tumors in animals. […] In this regard, several reports have shown that low levels of 2-dg can be safely administered to animals for various reasons including hypersensitization of tumors to irradiation.

The subject of data set [4] is 143b cells. As to the kind of experiment: Lactate production in living cells (screen for inhibitors of oxidative phosphorylation). The data set is classed as cell-based. As to conditions: for Change in lactate production (in words): increasing doses. The text has this:
Lactate (more commonly known as lactic acid) is an end product of glycolysis that is activated when a cell cannot use oxygen as its final electron acceptor. This occurs when cells are metabolizing anaerobically. Thus, under these conditions, pyruvate, which is the last end product of glycolysis during aerobic metabolism, is further metabolized to lactate. […] This discovery created a need for a screening method to identify agents which inhibit oxidative phosphorylation and thereby render a cell hypersensitive to glycolytic inhibitors. Consequently, we have developed a rapid and an inexpensive way to detect such agents by measuring increases in the production of lactate in living cells.
Such methodology provides a practical means for testing and or screening extensive libraries of structurally diverse compounds to identify inhibitors of oxidative phosphorylation as well as for obtaining new leads to design novel inhibitors of this fundamental cellular process.

In data set [5] the test system is osteosarcoma cell line (143B; Wild type). As to the kind of experiment: Growth inhibition studies in wild type 143B osteosarcoma cells. The data set is classed as cell-based. As to conditions: for 50% Growth Inhibition Dose / IC50: Wild type (143B) cells; for IC50: Homo sapiens, read-out: 50% Growth Inhibition Dose.
Data set [6] relates to tumor cells (143B or MCF-7). The experiment in a line: Hypersensitization of tumor cells to glycolytic inhibitors (cell model (A)). The data set is classed as cell-based. To be noted: intact tumor cells.
In data set [7] the test system is wild type 143B (wt) and ρ^o cells (cell line 206). As to the kind of experiment: Flow cytometric analysis of Rho 123 accumulation/retention. The data set is classed as cell-based. As to conditions: non-P-gp cell lines (143B wt and ρ^o). The procedure:
Flow cytometric analysis was performed in order to quantitate the differences observed microscopically between wild type 143B (wt) and ρ^o cells (designated as cell line 206) in their accumulation of Rho 123.
To ensure that our accumulation results were not complicated by P-gp-mediated MDR, since Rho 123 is a known substrate for this transporter, both cell types were examined for this gene by RT-PCR and were found not to express it.
(In general: In flow cytometry, cells or beads pass a laser one at a time.)

Converted amounts (≈) assume the structure as drawn.

For Rhodamine 123, in data set [1] (MCF-7, Rho 123 at its 50% dose, 2-dg at a non-toxic dose), the “Colony forming units inhibited” value turned out to be 50%. In addition, the “50% Growth Inhibition Dose” value in data set [2] stood at 50 µg/mL; in data set [5], 1.0 µg/mL. The “Ratio of 50% growth inhibition dose, ρ° to wild type (times more resistant)” value (“Ratio of 50% growth inhibition dose, ρ°” below) in data set [2] worked out at 50. Moreover, in data set [3], the Tumor response result is “only partial or no responses”. Moreover, the values for the LACTATE in data set [4] (dose 0.25 μg/ml), in data set [4] (dose 0.50 μg/ml) and in data set [4] (dose 1.0 μg/ml) were 9.3 +/− 0.4 μg/μg protein, 13.2 +/− 0.2 μg/μg protein and 14.6 +/− 2.3 μg/μg protein, respectively. In data set [4], the “Change in lactate production (in words)” value is given as “lactate is accordingly increased”. In addition, in data set [6], the “Hypersensitization of tumor cells to glycolytic inhibitors” value was “hypersensitize”.
Consider `O=CC[C@@H](O)[C@H](O)[C@H](O)CO` [2-deoxy-glucose, 2-deoxy-D-glucose], for which, in data set [1] (MCF-7, drug alone), the “Toxicity at the dose used for co-treatment” value was “no toxicity”. For the same molecule, the ID50 in data set [2] (ρ^o cells) was found to be 50 µg/mL (≈ 305 µM); in data set [5] (wt cells), 1000 µg/mL (≈ 6090 µM). Further, the results for the IC50 in data set [2] and in data set [5] were 50 µg/mL (≈ 305 µM) and 1000 µg/mL (≈ 6090 µM), respectively. Besides, in data set [2], the “Ratio of 50% growth inhibition dose, ρ°” value turned out to be 0.05. Further, the Tumor response result in data set [3] is “only partial or no responses”. In data set [3] (doses effective for anti-tumor activity in combination with an Oxphos inhibitor), the “Safety of administration to animals” value is on record as “can be administered safely”.
For the molecule `Cc1cc2nc3cc(C)c(N)cc3[n+](-c3ccccc3)c2cc1N.[Cl-]` [Saffranin O], the figures for the “50% Growth Inhibition Dose” value in data set [2] and in data set [5] were 2 µg/mL and 0.35 µg/mL, respectively. Further, the “Ratio of 50% growth inhibition dose, ρ°” value in data set [2] is given as 6.
With `COc1cccc2c1C(=O)c1c(O)c3c(c(O)c1C2=O)C[C@@](O)(C(=O)CO)C[C@@H]3O[C@H]1C[C@H](N)[C@H](O)[C@H](C)O1` [Doxorubicin], in data set [2], the “Relative toxicity/sensitivity in ρ^o vs wt cells (in words)” value (“Relative toxicity/sensitivity in ρ^o” below) is “equitoxic”; the IC50 turned out to be 0.01 µg/mL (≈ 0.0184 µM); the “Ratio of 50% growth inhibition dose, ρ°” value is 1. Besides, the LACTATE in data set [4] (dose 0.005 μg/ml) is 5.1 +/− 0.4 μg/μg protein. For the same molecule, the LACTATE in data set [4] (dose 0.01 μg/ml) is given as 5.5 +/− 0.7 μg/μg protein. The “Change in lactate production (in words)” value in data set [4] was “little or no significant changes”. Also, the IC50 in data set [5] came out at 0.01 µg/mL (≈ 0.0184 µM). Also, the “Hypersensitization of tumor cells to glycolytic inhibitors” value in data set [6] is listed as “do not hypersensitize”.
On to `CC(=O)O[C@H]1C(=O)[C@@]2(C)[C@H]([C@H](OC(=O)c3ccccc3)[C@]3(O)C[C@H](OC(=O)[C@H](O)[C@@H](NC(=O)c4ccccc4)c4ccccc4)C(C)=C1C3(C)C)[C@]1(OC(C)=O)CO[C@@H]1C[C@@H]2O` [Paclitaxel], for which the “Relative toxicity/sensitivity in ρ^o” value in data set [2] is on record as “equitoxic”. Besides, the IC50 in data set [2] and in data set [5] was 0.05 µg/mL (≈ 0.0586 µM) in each case. The “Ratio of 50% growth inhibition dose, ρ°” value in data set [2] was 1. Further, the LACTATE in data set [4] (dose 0.0005 μg/ml) is 5.6 +/− 0.7 μg/μg protein; in data set [4] (dose 0.001 μg/ml) it was 6.1 +/− 0.7 μg/μg protein; in data set [4] (dose 0.002 μg/ml), 6.6 +/− 0.3 μg/μg protein. The “Change in lactate production (in words)” value in data set [4] is “little or no significant changes”. The “Hypersensitization of tumor cells to glycolytic inhibitors” value in data set [6] is recorded as “do not hypersensitize”.
For `COc1ccc(CCN(C)CCCC(C#N)(c2ccc(OC)c(OC)c2)C(C)C)cc1OC` (stereo not drawn) [verapamil], in data set [7], the “Effect on retention of Rho 123” value is given as “increases the retention of Rho 123”.
As to `CC[C@]1(O)C[C@@H]2CN(CCc3c([nH]c4ccccc34)[C@@](C(=O)OC)(c3cc4c(cc3OC)N(C)[C@H]3[C@@](O)(C(=O)OC)[C@H](OC(C)=O)[C@]5(CC)C=CCN6CC[C@]43[C@@H]65)C2)C1` [Vinblastine], in data set [2], the “Relative toxicity/sensitivity in ρ^o” value is “equitoxic”. For the same molecule, the IC50 in data set [2] and in data set [5] was 0.00075 µg/mL (≈ 0.000925 µM) throughout. Besides, the “Ratio of 50% growth inhibition dose, ρ°” value in data set [2] stood at 1. Also, the figures for the LACTATE in data set [4] (dose 0.0005 μg/ml), in data set [4] (dose 0.001 μg/ml) and in data set [4] (dose 0.002 μg/ml) were 5.6 +/− 0.6 μg/μg protein, 6.3 +/− 0.9 μg/μg protein and 5.8 +/− 0.3 μg/μg protein, respectively. In addition, the “Change in lactate production (in words)” value in data set [4] is “little or no significant changes”. The “Hypersensitization of tumor cells to glycolytic inhibitors” value in data set [6] was “do not hypersensitize”.
